Key:
Format in all cases: cell-based
[1] = system: tetrodotoxin-sensitive voltage-gated sodium channels including NaV1.2, NaV1.3 and NaV1.7; test: TTX-S Assay (VIPR, SHSY-5Y cell line, veratridine opener); settings: read-out: TTX-S IC50, veratridine 50 μM opener, average of replicates
Human Nav1.8 = target: T1, Human Nav1.8 (Homo sapiens, UniProt Q9Y5Y9); test: VIPR Assay for Nav1.8 Compounds (FRET membrane potential, deltamethrin opener); settings: VIPR FRET membrane potential assay, deltamethrin opener; average of replicates; read-out: Nav1.8 IC50
T1 construct: expressed in transfected cells; host or cells: HEK293
T1 sequence (Q9Y5Y9 whole entry): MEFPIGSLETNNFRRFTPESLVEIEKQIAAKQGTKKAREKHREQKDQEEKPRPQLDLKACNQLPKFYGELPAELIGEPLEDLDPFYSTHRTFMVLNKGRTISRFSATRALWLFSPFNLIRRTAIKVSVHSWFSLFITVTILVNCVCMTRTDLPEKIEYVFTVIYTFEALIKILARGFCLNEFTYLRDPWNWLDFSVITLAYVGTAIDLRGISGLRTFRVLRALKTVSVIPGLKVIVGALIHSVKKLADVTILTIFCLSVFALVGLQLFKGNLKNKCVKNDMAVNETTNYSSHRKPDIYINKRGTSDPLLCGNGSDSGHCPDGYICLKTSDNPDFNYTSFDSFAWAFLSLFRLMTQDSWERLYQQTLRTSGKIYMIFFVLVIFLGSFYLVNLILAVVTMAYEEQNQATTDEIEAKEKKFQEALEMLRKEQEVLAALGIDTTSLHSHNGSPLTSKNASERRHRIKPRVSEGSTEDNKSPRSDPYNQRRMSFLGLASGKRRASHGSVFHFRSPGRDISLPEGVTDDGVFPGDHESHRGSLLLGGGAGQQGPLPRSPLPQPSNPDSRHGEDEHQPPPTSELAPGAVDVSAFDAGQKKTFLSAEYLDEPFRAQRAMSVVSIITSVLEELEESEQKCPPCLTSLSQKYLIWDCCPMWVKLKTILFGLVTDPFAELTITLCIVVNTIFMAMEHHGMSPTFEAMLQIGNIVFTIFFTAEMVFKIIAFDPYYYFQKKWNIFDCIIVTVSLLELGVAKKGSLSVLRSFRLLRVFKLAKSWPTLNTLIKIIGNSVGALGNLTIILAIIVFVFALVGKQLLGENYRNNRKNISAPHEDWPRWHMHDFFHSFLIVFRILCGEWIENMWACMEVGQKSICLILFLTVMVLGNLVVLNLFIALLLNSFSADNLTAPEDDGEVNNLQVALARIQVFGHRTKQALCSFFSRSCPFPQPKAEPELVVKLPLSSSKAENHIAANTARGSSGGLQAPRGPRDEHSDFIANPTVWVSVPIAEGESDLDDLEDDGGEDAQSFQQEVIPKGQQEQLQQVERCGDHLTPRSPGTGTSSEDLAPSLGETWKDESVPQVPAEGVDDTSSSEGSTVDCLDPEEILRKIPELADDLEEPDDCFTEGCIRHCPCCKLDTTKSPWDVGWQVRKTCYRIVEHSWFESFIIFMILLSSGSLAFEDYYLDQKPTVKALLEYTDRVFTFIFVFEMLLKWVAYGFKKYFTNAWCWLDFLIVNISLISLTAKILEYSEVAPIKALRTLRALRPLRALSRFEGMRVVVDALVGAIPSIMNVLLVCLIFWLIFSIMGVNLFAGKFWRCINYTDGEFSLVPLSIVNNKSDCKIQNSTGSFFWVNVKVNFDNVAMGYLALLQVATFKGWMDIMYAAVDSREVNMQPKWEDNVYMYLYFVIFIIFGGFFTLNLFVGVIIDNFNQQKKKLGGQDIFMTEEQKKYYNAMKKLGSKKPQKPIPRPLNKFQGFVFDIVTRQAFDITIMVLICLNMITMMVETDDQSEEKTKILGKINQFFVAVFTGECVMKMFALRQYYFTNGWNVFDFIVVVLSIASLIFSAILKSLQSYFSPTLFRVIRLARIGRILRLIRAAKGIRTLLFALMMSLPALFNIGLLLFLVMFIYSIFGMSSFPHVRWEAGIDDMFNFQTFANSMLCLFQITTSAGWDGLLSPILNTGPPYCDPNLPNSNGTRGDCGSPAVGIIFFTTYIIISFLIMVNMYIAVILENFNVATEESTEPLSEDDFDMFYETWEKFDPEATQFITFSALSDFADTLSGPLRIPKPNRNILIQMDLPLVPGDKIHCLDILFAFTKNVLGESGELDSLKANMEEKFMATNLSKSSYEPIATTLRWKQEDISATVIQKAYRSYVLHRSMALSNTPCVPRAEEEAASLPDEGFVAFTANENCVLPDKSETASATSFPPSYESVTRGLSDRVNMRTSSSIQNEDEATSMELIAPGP

Human Nav1.5 = target: T2, Human Nav1.5 (Homo sapiens, UniProt Q14524); test: Nav1.5 Assay (VIPR, HEK293 cells); settings: HEK293 cells expressing Human Nav1.5; average of replicates; read-out: Nav1.5 IC50
T2 construct: expressed in transfected cells; host or cells: HEK293
T2 sequence (Q14524 whole entry): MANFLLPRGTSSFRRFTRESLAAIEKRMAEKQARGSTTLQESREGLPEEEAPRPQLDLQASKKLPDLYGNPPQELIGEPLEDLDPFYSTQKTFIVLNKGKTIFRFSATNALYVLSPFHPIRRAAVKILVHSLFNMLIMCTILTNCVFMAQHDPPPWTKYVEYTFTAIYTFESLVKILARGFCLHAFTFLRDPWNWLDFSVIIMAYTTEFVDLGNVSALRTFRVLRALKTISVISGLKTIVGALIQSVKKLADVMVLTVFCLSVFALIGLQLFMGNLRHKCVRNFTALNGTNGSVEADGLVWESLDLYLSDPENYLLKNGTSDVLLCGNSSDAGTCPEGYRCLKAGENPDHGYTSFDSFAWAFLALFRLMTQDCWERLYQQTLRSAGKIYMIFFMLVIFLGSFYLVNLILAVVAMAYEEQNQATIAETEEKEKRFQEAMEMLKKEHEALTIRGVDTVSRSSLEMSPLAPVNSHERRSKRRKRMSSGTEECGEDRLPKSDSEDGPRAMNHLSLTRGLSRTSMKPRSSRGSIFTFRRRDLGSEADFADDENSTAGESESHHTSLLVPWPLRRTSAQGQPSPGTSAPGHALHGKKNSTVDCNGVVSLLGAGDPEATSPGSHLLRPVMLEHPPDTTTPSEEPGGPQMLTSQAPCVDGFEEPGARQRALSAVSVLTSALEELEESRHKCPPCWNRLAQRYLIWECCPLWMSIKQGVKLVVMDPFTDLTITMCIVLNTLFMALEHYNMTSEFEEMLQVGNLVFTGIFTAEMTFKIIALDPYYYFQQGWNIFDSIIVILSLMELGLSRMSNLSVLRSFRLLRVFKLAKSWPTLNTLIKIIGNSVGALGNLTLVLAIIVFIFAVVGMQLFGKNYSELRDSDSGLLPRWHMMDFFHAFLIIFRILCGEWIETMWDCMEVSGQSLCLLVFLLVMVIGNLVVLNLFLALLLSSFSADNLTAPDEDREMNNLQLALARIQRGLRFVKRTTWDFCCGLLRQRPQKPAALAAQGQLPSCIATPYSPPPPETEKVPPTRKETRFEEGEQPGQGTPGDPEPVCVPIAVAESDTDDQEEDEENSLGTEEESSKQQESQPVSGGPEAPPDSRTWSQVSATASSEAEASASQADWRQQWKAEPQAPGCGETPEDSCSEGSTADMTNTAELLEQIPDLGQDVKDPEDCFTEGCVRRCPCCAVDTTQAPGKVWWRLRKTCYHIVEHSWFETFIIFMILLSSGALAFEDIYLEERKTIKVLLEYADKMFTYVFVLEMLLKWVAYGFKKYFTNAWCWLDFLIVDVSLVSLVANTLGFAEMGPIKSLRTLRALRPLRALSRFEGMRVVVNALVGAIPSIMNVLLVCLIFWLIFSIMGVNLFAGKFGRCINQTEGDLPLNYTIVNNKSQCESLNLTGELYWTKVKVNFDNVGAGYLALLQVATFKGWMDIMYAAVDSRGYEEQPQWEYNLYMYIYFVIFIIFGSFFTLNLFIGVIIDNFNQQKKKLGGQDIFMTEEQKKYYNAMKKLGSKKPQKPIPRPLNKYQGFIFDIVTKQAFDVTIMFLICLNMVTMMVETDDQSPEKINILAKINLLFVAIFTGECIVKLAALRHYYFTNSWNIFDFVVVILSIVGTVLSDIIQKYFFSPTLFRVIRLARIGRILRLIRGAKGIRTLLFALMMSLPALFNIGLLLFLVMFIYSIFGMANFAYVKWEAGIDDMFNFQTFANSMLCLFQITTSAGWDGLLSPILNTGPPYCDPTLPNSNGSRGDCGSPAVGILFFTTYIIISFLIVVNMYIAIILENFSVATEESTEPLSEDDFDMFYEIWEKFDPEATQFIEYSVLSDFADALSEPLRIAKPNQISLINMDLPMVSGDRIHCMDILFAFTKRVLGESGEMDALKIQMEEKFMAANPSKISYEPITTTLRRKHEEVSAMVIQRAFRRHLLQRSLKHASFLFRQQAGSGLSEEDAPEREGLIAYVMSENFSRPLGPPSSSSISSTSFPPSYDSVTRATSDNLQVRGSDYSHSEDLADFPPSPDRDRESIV
Method: The Nav1.5 assay is performed in HEK293 cells expressing Human Nav1.5 in the same way as the Nav1.8 assay.
Where replicate experiments were conducted resulting in multiple sets of data for a test compound, the data presented represent the average value from all replicate experiments.

Structure (SMILES)	IC50 [1]	IC50 (Human Nav1.8)	IC50 (Human Nav1.5)
COc1cc(Cl)c(Cl)c(-c2ccc(NC(=O)c3nonc3C)nc2N)c1 [Example 48, N-[6-Amino-5-(2,3-dichloro-5-methoxyphenyl)pyridin-2-yl]-4-methyl-1,2,5-oxadiazole-3-carboxamide]	3.3 µM	0.76 µM	22 µM
Cc1nonc1C(=O)Nc1ccc(-c2ccccc2OC(F)(F)F)c(N)n1 [Example 50, N-{6-Amino-5-[2-(trifluoromethoxy)phenyl]pyridin-2-yl}-4-methyl-1,2,5-oxadiazole-3-carboxamide]	9.8 µM	3.1 µM	19 µM
CCn1nccc1C(=O)Nc1ccc(-c2cc(OC)ccc2Cl)c(N)n1 [Example 52, N-[6-Amino-5-(2-chloro-5-methoxyphenyl)pyridin-2-yl]-1-ethyl-1H-pyrazole-5-carboxamide]	6.4 µM	0.95 µM	16 µM
CCn1nccc1C(=O)Nc1ccc(-c2ccccc2Cl)c(N)n1 [Example 53, N-[6-Amino-5-(2-chlorophenyl)pyridin-2-yl]-1-ethyl-1H-pyrazole-5-carboxamide]	15 µM	2.3 µM	22 µM
CCn1nccc1C(=O)Nc1ccc(-c2cc(F)ccc2Cl)c(N)n1 [Example 54, N-[6-Amino-5-(2-chloro-5-fluorophenyl)pyridin-2-yl]-1-ethyl-1H-pyrazole-5-carboxamide]	18 µM	1.2 µM	20 µM
CCn1nccc1C(=O)Nc1ccc(-c2ccc(F)cc2Cl)c(N)n1 [Example 55, N-[6-Amino-5-(2-chloro-4-fluorophenyl)pyridin-2-yl]-1-ethyl-1H-pyrazole-5-carboxamide]	> 32 µM	23 µM	> 32 µM
CCn1nccc1C(=O)Nc1ccc(-c2cc(Cl)ccc2Cl)c(N)n1 [Example 56, N-[6-Amino-5-(2,5-dichlorophenyl)pyridin-2-yl]-1-ethyl-1H-pyrazole-5-carboxamide]	8.1 µM	2.4 µM	17 µM
CCn1nccc1C(=O)Nc1ccc(-c2cc(F)ccc2C(F)(F)F)c(N)n1 [Example 57, N-{6-Amino-5-[5-fluoro-2-(trifluoromethyl)phenyl]pyridin-2-yl}-1-ethyl-1H-pyrazole-5-carboxamide]	21 µM	3.7 µM	> 32 µM
CCn1nccc1C(=O)Nc1ccc(-c2cccc(F)c2Cl)c(N)n1 [Example 58, N-[6-Amino-5-(2-chloro-3-fluorophenyl)pyridin-2-yl]-1-ethyl-1H-pyrazole-5-carboxamide]	17 µM	9.3 µM	31 µM
CCn1nccc1C(=O)Nc1ccc(-c2ccccc2OC(F)(F)F)c(N)n1 [Example 59, N-{6-Amino-5-[2-(trifluoromethoxy)phenyl]pyridin-2-yl}-1-ethyl-1H-pyrazole-5-carboxamide]	17 µM	3.6 µM	31 µM
CCn1nccc1C(=O)Nc1ccc(-c2ccccc2C(F)(F)F)c(N)n1 [Example 60, N-{6-Amino-5-[2-(trifluoromethyl)phenyl]pyridin-2-yl}-1-ethyl-1H-pyrazole-5-carboxamide]	> 32 µM	4.3 µM	20 µM
CCn1nccc1C(=O)Nc1ccc(-c2cc(OC)cc(Cl)c2Cl)c(N)n1 [Example 61, N-[6-Amino-5-(2,3-dichloro-5-methoxyphenyl)pyridin-2-yl]-1-ethyl-1H-pyrazole-5-carboxamide]	9.7 µM	1.3 µM	9.7 µM
CCn1nccc1C(=O)Nc1ccc(-c2cc(Cl)cc(OC)c2Cl)c(N)n1 [Example 62, N-[6-Amino-5-(2,5-dichloro-3-methoxyphenyl)pyridin-2-yl]-1-ethyl-1H-pyrazole-5-carboxamide]	11 µM	5.1 µM	17 µM
CCn1nccc1C(=O)Nc1ccc(-c2cc(Cl)ccc2OC(F)(F)F)c(N)n1 [Example 63, N-{6-Amino-5-[5-chloro-2-(trifluoromethoxy)phenyl]pyridin-2-yl}-1-ethyl-1H-pyrazole-5-carboxamide]	4.4 µM	4.3 µM	16 µM
CCn1nccc1C(=O)Nc1ccc(-c2cc(OC(F)(F)F)ccc2F)c(N)n1 [Example 64, N-{6-Amino-5-[2-fluoro-5-(trifluoromethoxy)phenyl]pyridin-2-yl}-1-ethyl-1H-pyrazole-5-carboxamide]	3.7 µM	5 µM	14 µM
CCn1nccc1C(=O)Nc1ccc(-c2cc(OC(F)(F)F)ccc2Cl)c(N)n1 [Example 65, N-{6-Amino-5-[2-chloro-5-(trifluoromethoxy)phenyl]pyridin-2-yl}-1-ethyl-1H-pyrazole-5-carboxamide]	3.2 µM	5.3 µM	12 µM
CC(C)n1nccc1C(=O)Nc1ccc(-c2cc(F)ccc2Cl)c(N)n1 [Example 67, N-[6-Amino-5-(2-chloro-5-fluorophenyl)pyridin-2-yl]-1-isopropyl-1H-pyrazole-5-carboxamide]	22 µM	5 µM	31 µM
CC(C)n1nccc1C(=O)Nc1ccc(-c2ccccc2OC(F)(F)F)c(N)n1 [Example 68, N-{6-Amino-5-[2-(trifluoromethoxy)phenyl]pyridin-2-yl}-1-isopropyl-1H-pyrazole-5-carboxamide]	5 µM	3.9 µM	17 µM
CC(C)n1nccc1C(=O)Nc1ccc(-c2cc(OC(F)(F)F)ccc2Cl)c(N)n1 [Example 69, N-{6-Amino-5-[2-chloro-5-(trifluoromethoxy)phenyl]pyridin-2-yl}-1-isopropyl-1H-pyrazole-5-carboxamide]	3.6 µM	16 µM	16 µM
Cn1ccc(C(=O)Nc2ccc(-c3cc(Cl)cc(Cl)c3Cl)c(N)n2)n1 [Example 70, N-[6-Amino-5-(2,3,5-trichlorophenyl)pyridin-2-yl]-1-methyl-1H-pyrazole-3-carboxamide]	14 µM	11 µM	28 µM
Nc1nc(NC(=O)c2cnon2)ccc1-c1cc(Cl)ccc1Cl [Example 71, N-[6-Amino-5-(2,5-dichlorophenyl)pyridin-2-yl]-1,2,5-oxadiazole-3-carboxamide]	> 32 µM	> 32 µM	> 32 µM
COc1ccc(Cl)c(-c2ccc(NC(=O)c3ccon3)nc2N)c1 [Example 73, N-[6-Amino-5-(2-chloro-5-methoxyphenyl)pyridin-2-yl]isoxazole-3-carboxamide]	18 µM	4.7 µM	> 32 µM
Nc1nc(NC(=O)c2ccno2)ccc1-c1cc(Cl)cc(Cl)c1Cl [Example 78, N-[6-Amino-5-(2,3,5-trichlorophenyl)pyridin-2-yl]isoxazole-5-carboxamide]	8.3 µM	1.4 µM	14 µM
Cn1nncc1C(=O)Nc1ccc(-c2cc(Cl)ccc2Cl)c(N)n1 [Example 80, N-[6-Amino-5-(2,5-dichlorophenyl)pyridin-2-yl]-1-methyl-1H-1,2,3-triazole-5-carboxamide]	15 µM	3.4 µM	15 µM
COc1cc(Cl)c(Cl)c(-c2ccc(NC(=O)c3cnnn3C)nc2N)c1 [Example 81, N-[6-Amino-5-(2,3-dichloro-5-methoxyphenyl)pyridin-2-yl]-1-methyl-1H-1,2,3-triazole-5-carboxamide]	7.5 µM	1.1 µM	2.9 µM

From patent US8134007B2, “Pyridine derivatives” (Pfizer Inc., priority 2007, dated 2012)
